These results are taken from patent EP4129284B1, “SERTACONAZOL FOR PROVIDING A SPORISTATIC AND/OR SPORICIDAL EFFECT” (Dr. Pfleger Arzneimittel GmbH, priority 2021, dated 2023).

Each structure is given as a SMILES string.

For the data set, the system named is full skin models. The class given is cell-based, human. How it is done: Additionally, the influence on the cell viability and the release of lactate dehydrogenase (LDH) was examined over the incubation time. Disruptions of the cell membranes can be measured by the release of the cytosolic enzyme LDH and be evaluated as a marker for cellular necrosis. As the biocompatibility of the material is determined by further cellular and molecular factors, the analysis of the cellular interleukin release allows the conclusion on e.g. pro-inflammatory effects of the substances, which would not be possible to be detected by sole cytotoxicity. Such interleukins are interleukins 1α, 6 or 8, which are involved in coordinating the cellular proliferation, cell migration and possible inflammatory processes. Such a method is described in, for example, Wiegand C, Hipler UC. Evaluation of biocompatibility and cytotoxicity using keratinocyte and fibroblast cultures. Skin Pharmacol Physiol 2009; 22:74-82; Wiegand C, Winter D, Hipler UC. Molecular-weight-dependent toxic effects of chitosans on the human keratinocyte cell line HaCaT. Skin Pharmacol Physiol. 2010;23(3):164-70.
The spore suspensions and the solutions of sertaconazol, ciclopiroxolamin and terbinafin were prepared as in Example 1, wherein the respective test concentrations were obtained by diluting these solutions in ultrapure water (WFI; Fresenius Kabi) instead of SGB (Merck). Full skin models were produced as previously described [Reddersen K, Wiegand C, Elsner P, Hipler UC. Three-dimensional human skin model infected with Staphylococcus aureus as a tool for evaluation of bioactivity and biocompatibility of antiseptics. Int J Antimicrob Agents. 2019; 54(3):283-291; Wiegand C, Fink S, Beier O, Horn K, Pfuch A, Schimanski A, Grünler B, Hipler UC, Elsner P. Dose- and Time-Dependent Cellular Effects of Cold Atmospheric Pressure Plasma Evaluated in 3D Skin Models. Skin Pharmacol Physiol. 2016;29(5):257-265].Particularly, normal human dermal fibroblasts (NHDF; Lot 1060702.1, Promocell) and normal human epidermal keratinocytes (NHEK; Lot 9100102, Promocell) were used. Fibroblasts were cultivated in Dulbecco's modified eagle medium (DMEM; Lot MC09049P, Amimed), with 2% foetal calf serum (Lot P160509; PAN), 5 ng/mL hFGF (Lot 0329586; novoprotein) and 5 µg/ml Insulin (Lot H07443P, AMIMED) at 37°C and a 5% CO2 atmosphere. Keratinocytes were cultivated in keratinocyte medium (KBM, Lot 446M063, Promocell) at 37°C and a 5% CO2 atmosphere. The cultivation was performed over 7 days in 75 cm^2 cell culture flasks (Greiner Bio-One). The cells were subsequently detached with Trypsin-EDTA (Lot 2091326; Gibco) and dissolved in the respective medium. For producing the dermis equivalent, fibroblasts were cultivated in 12-well inserts (Greiner bio-one) with DMEM (Lot MC09049P, Amimed) + 10% foetal calf serum (Lot P160509, PAN) + 1% Gentamycin (Lot 2027100, Gibco) + 150 µg/ml ascorbic acid (Lot BCBS1081V, Sigma) for 3 weeks at […] and 5 % CO2. The medium was changed all 2-3 days. Before seeding the keratinocytes for producing the […], the medium surrounding the insert was completely removed and the dermis upper layer was coated with fibronectin (50 µg/mL; Lot 435P078, Promocell). After 30 min of incubation of the dermis equivalent with fibronectin, the seeding of the keratinocytes was performed with 2 × 10^5 cells / insert in KBM (Lot 446M063, Promocell) + 5% FKS (Lot P160509, PAN) + 1% Gentamycin (Lot 2027100, Gibco). Subsequently, the skin models were incubated for 45 min in the incubator before the models were flooded with KBM + 5% FKS + 1% Gentamycin. The skin models were cultivated for 7 days by submersion in the medium with decreasing foetal calf serum concentration (5 %, 2 %, 0 %). The medium was changed all 2-3 days. After the cultivation by submersion, the skin models were further cultivated for 12 days at the air-medium interface (airlift cultivation). […]

`CCCCCCCCCCCCOS(=O)(=O)[O-].[Na+]` [SDS]: the cell viability entry was “approximately 20%”.
